# Results from publication PMC5288202, “Simultaneous inhibition of Vps34 kinase would enhance PI3Kδ inhibitor cytotoxicity in the B-cell malignancies” (Oncotarget, 2016).
# Tests used:
# PI3Kα [1] = biological target: T1, PI3Kα (Mus musculus, UniProt P42337); assay: PI3K isoforms cellular selectivity assay (AKT phosphorylation, NIH-3T3, PDGF-BB); type: cell-based; details: NIH-3T3 cells, PDGF-BB stimulation
# T1 construct: endogenous in cells; host or cells: NIH-3T3 (ATCC)
# Experimental: (§1) Cells were lysed and AKT phosphorylation was determined by Western Blotting. Intensity of the bands was determined using ImageJ 1.42q (NIH, USA) and normalized to total AKT (loading control).
# MEC-2 [2] = assay: Colony formation (colonogenic assay); type: cell-based; details: MEC2; CLL
# PI4KA = biological target: T2, PI4KA (Homo sapiens, UniProt P42356); assay: ADP-Glo biochemical assay; details: 50 μM ATP, read-out: IC50 against PI4KA
# T2 construct: purchased Invitrogen
# HT = assay: Anti-proliferative effect; type: cell-based; details: Homo sapiens, read-out: GI50 HT
# [3] = system: LC3B puncta in HeLa cells; assay: Immunofluorescence of LC3B puncta; type: cell-based; details: 16 hours
# Experimental: (§2) HeLa cells were treated with different concentrations of inhibitors for 16 hours. For all immunofluorescence experiments, cells were fixed in -20 °C methanol for 5 minutes or 3.7% (v/v) formaldehyde in phosphate-buffered saline (PBS) for 20 minutes. For LC3B staining, cells were fixed in -20 °C methanol. For EEA1 and LAMP1 staining, cells were fixed in PBS+ formaldehyde. Cells were then permeabilized with TBSTx (0.1% Triton X-100), blocked in AbDil (TBSTx + 2% BSA + 0.1% NaN3), and probed with primary and secondary antibodies diluted in AbDil. Cells were rinsed thoroughly with TBSTx and mounted by anti-fade prolong Gold with DAPI. Images were taken using a Leica DMI4000B fluorescent microscope. All experiments were repeated at least three times). […] Cells were lysed in lysis buffer. P62, LC3B, and GAPDH antibodies were used for immunoblotting.
# [4] = system: LC3BII accumulation in HeLa cells; assay: LC3BII accumulation in the presence of EBSS and HCQ (immunoblot); type: cell-based; details: Homo sapiens, EBSS and HCQ (25 μM), read-out: EC50 prevention of LC3BII accumulation
# Experimental: as §2
# PIK3C2A = biological target: T3, PIK3C2A (Homo sapiens, UniProt O00443); assay: ADP-Glo biochemical assay; details: 50 μM ATP, read-out: IC50 against PIK3C2A
# T3 construct: purchased Invitrogen
# PI3Kβ [5] = biological target: T4, PI3Kβ (Mus musculus, UniProt Q8BTI9); assay: PI3K isoforms cellular selectivity assay (AKT phosphorylation, NIH-3T3, LPA); type: cell-based; details: NIH-3T3 cells, LPA stimulation
# T4 construct: endogenous in cells; host or cells: NIH-3T3
# Experimental: as §1
# MEC-1 = assay: Anti-proliferative effect; type: cell-based; details: Homo sapiens, MEC1; CLL
# mTOR kinase = biological target: T5, mTOR kinase (Homo sapiens, UniProt P42345); assay: DiscoveRx's KinomeScan binding; details: read-out: % control number, mTOR
# T5 construct: purchased DiscoveRx (KinomeScan platform)
# SKM-1 = assay: Anti-proliferative effect; type: cell-based; details: Homo sapiens, SKM-1, read-out: GI50 SKM-1
# MEC-2 [6] = assay: Induction of apoptosis (PARP cleavage); type: cell-based; details: MEC-2, evident at 3 μM to 10 μM
# PI3Kβ [7] = biological target: T6, PI3Kβ (Homo sapiens, UniProt P42338); assay: ADP-Glo biochemical assay; details: purified protein, 10 μM ATP, read-out: IC50 against PI3Kβ (PIK3CB)
# T6 construct: purchased Sigma
# PI3Kα [8] = biological target: T7, PI3Kα (Homo sapiens, UniProt P42336); assay: ADP-Glo biochemical assay; details: purified protein, 10 μM ATP, read-out: IC50 against PI3Kα (PIK3CA)
# T7 construct: purchased Invitrogen
# mTORC1 kinase = mTORC1 kinase (Homo sapiens, UniProt P42345); assay: in vitro IP kinase assay; type: biochemical; details: activity-based in vitro IP kinase assay; read-out: EC50 mTORC1 kinase inhibition
# MV4-11 = assay: Colony formation (colonogenic assay); type: cell-based; details: Homo sapiens, AML
# PIK3C2B = biological target: T8, PIK3C2B (Homo sapiens, UniProt O00750); assay: ADP-Glo biochemical assay; details: 50 μM ATP, read-out: IC50 against PIK3C2B
# T8 construct: purchased Invitrogen
# protein kinases = assay: DiscoveRx's KinomeScan selectivity profile; type: binding; details: 1 μM
# OCI-AML-2 = assay: Induction of apoptosis (PARP cleavage); type: cell-based; details: OCI-AML-2, evident at 3 μM to 10 μM
# OCI-AML-3 [9] = assay: Anti-proliferative effect; type: cell-based; details: Homo sapiens, AML(FLT3wt)
# OCI-AML-3 [10] = assay: Autophagy markers LC3BII and p62 (immunoblotting); type: cell-based
# pERK in MEC-2 cells = assay: pERK immunoblotting; type: cell-based
# Text: The following antibodies were purchased from Cell Signaling Technology: Akt(#4691), Phospho-Akt(Thr308)(#4056), Phospho-Akt(Ser473)(#4060), GAPDH, GSK-3β(#9315), Phospho-GSK-3β(#9323), FoxO1(#2880), Phospho-FoxO1 (Thr24)/FoxO3a(Thr32)/FoxO4(Thr28)(#2599), PRAS40(#2691), Phospho-PRAS40 (Thr246)(#2997), 4E-BP1(#9644), p70 S6K(#2708), Phospho-p70 S6K (Thr389)(#9234). SQSTM1/p62 (D5E2)(#8025), LC3B(#12513). PARP(#9532), Caspase-3(#9665), Phospho-p44/42 MAPK (Erk1/2) (Thr202/Tyr204)(#4377), p44/42 MAPK (Erk1/2) (#4695), Phospho-NF-ΚB P65 (Ser 536)(#3033), NF-ΚB P65(#4764). Lysophosphatidic Acid (#sc-201053, Santa Cruz), Recombinant Human PDGF-BB (#220-BB, R&D), Recombinant Human C5a (Peprotech, #300-70), goat anti-IgM (#5C07615, Meridian). LC3B antibody (#3868, CST). Tubulin antibody (#8035, Santa Cruz). EEA1 antibody (#610456, BD Bioscience) and LAMP1 antibody (#24170, Abcam). Secondary antibodies, Alexa488-anti-mouse, Alexa594-anti-rabbit and Prolong gold mounting medium with DAPI were purchased from Invitrogen.
# MEC-2 [11] = assay: Autophagy markers LC3BII and p62 (immunoblotting); type: cell-based
# PI3Kδ = PI3Kδ (Homo sapiens, UniProt O00329); assay: biochemical
# Experimental: The activities of PI3Kα, PI3Kβ, PI3Kδ, PI3Kγ, PI3KC2α, PI3KC2β, Vps34, PI4Kα and PI4Kβ were determined by using ADP-Glo assay, a fluorescence-based immunoassay that measures kinase activity in terms of the amount of ADP produced. A kinase titration was performed to determine the concentration. The amount of recombinant kinases was optimized to keep the reaction velocity within the linear range, to obtain an adequate difference between the resulting signals of sample in/out the presence of enzyme. The optimized enzyme concentrations for evaluating the inhibitory activities of compounds were chosen as follows: 0.16 μg/ml, 6.0 μg/ml, 1.0 μg/ml, 5.0 μg/ml, 5.0 μg/ml, 10.0 μg/ml, 1.2 μg/ml, 1.2 μg/ml and 1.0 μg/ml for PI3Kα, PI3Kβ, PI3Kδ, PI3Kγ, PI3KC2α, PI3KC2β, Vps34, PI4Kα and PI4Kβ, respectively. The ATP concentration was optimized, 10 μM ATP for PI3Kα and PI3Kβ, and 50 μM ATP for detection of the other seven kinases. The PI3Kα, PI3Kβ, PI3Kδ, PI3Kγ, PI3KC2α, PI3KC2β kinase reactions were carried out in 10 μl volume in a 384-well plate in the kinase reaction buffer containing 50 mM Hepes pH 7.5, 3 mM MgCl2, 1 mM EGTA, 1 mM NaCl, 0.03% CHAPS and 2 mM DTT. […] 10 μl kinase detection reagent was dded and incubated for 30 min at room temperature, before the luminescence signal was read with an envision PerkinElmer plate reader.
# T6 sequence (P42338 whole entry): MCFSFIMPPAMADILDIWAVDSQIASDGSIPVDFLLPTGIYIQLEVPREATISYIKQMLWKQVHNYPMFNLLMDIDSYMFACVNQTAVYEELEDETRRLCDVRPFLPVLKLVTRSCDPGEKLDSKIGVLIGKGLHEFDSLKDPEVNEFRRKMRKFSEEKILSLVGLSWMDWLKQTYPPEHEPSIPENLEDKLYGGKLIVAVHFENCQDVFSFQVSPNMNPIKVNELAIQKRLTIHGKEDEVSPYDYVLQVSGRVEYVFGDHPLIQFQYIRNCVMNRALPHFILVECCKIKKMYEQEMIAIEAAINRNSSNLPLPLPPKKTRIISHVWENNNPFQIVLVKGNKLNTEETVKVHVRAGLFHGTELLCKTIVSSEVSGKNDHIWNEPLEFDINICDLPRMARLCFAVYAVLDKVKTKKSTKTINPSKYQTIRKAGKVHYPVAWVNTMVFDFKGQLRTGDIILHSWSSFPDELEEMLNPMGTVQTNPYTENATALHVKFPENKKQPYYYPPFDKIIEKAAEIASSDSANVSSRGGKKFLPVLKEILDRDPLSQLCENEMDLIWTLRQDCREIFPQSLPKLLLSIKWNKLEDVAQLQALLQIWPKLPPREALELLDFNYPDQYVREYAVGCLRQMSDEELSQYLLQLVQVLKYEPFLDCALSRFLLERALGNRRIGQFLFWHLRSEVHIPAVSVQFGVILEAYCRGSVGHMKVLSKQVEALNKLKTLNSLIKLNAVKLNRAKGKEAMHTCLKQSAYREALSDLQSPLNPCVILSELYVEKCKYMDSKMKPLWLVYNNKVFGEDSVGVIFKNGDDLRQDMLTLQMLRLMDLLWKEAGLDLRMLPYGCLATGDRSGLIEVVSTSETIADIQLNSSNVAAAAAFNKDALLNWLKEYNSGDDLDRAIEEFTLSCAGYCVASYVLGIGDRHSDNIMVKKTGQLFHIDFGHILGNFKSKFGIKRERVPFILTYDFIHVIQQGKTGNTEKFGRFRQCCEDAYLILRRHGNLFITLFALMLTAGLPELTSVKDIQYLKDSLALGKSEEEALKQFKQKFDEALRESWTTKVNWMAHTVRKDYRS
# T6 sequence (P27986 whole entry partner): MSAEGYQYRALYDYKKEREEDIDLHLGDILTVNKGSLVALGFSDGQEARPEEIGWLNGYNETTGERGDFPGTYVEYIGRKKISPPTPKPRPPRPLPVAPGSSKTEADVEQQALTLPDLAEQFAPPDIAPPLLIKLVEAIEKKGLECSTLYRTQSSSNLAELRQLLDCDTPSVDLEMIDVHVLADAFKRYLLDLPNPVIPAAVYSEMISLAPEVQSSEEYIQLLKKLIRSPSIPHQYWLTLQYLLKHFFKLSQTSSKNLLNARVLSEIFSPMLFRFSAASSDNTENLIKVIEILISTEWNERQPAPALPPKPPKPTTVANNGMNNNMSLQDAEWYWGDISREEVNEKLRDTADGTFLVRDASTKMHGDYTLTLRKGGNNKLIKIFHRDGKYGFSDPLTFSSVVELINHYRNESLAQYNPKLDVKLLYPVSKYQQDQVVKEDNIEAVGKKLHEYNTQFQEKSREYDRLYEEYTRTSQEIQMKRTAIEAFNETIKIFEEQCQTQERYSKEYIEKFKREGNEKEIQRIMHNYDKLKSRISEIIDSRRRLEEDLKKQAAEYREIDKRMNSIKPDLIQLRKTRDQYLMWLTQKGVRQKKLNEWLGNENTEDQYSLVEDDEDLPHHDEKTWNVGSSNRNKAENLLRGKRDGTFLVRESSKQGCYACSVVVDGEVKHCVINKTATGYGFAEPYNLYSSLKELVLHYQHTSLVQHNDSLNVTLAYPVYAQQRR
# T7 sequence (P42336 whole entry): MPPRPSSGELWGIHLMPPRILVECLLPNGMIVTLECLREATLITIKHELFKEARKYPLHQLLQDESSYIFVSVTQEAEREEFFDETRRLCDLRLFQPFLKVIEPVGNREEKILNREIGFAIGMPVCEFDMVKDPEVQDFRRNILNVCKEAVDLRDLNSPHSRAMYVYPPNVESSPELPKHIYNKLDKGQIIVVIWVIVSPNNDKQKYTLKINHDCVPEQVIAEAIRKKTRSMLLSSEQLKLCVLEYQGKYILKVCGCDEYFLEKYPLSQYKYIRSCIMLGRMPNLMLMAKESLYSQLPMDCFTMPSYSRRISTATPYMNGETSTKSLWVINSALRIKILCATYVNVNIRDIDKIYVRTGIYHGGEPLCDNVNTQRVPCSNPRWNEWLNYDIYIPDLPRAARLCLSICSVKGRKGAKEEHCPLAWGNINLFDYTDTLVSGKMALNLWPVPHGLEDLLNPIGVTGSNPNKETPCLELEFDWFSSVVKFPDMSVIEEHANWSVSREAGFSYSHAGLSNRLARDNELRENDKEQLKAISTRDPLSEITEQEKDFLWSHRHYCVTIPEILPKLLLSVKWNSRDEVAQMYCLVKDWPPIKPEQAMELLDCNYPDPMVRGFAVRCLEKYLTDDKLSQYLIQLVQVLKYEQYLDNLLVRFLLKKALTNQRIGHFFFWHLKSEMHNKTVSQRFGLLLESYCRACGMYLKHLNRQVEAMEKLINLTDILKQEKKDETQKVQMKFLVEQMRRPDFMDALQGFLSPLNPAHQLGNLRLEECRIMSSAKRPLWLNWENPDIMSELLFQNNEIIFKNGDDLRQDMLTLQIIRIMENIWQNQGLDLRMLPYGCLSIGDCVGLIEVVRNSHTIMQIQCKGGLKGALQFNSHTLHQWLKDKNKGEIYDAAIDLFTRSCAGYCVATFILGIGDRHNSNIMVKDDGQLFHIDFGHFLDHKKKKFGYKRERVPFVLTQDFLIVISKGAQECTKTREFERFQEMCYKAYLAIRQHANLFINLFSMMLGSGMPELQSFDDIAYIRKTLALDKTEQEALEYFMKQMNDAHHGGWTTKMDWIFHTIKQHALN
# T7 sequence (P27986 whole entry partner): as the sequence (P27986 whole entry partner) above
# T3 sequence (O00443 whole entry): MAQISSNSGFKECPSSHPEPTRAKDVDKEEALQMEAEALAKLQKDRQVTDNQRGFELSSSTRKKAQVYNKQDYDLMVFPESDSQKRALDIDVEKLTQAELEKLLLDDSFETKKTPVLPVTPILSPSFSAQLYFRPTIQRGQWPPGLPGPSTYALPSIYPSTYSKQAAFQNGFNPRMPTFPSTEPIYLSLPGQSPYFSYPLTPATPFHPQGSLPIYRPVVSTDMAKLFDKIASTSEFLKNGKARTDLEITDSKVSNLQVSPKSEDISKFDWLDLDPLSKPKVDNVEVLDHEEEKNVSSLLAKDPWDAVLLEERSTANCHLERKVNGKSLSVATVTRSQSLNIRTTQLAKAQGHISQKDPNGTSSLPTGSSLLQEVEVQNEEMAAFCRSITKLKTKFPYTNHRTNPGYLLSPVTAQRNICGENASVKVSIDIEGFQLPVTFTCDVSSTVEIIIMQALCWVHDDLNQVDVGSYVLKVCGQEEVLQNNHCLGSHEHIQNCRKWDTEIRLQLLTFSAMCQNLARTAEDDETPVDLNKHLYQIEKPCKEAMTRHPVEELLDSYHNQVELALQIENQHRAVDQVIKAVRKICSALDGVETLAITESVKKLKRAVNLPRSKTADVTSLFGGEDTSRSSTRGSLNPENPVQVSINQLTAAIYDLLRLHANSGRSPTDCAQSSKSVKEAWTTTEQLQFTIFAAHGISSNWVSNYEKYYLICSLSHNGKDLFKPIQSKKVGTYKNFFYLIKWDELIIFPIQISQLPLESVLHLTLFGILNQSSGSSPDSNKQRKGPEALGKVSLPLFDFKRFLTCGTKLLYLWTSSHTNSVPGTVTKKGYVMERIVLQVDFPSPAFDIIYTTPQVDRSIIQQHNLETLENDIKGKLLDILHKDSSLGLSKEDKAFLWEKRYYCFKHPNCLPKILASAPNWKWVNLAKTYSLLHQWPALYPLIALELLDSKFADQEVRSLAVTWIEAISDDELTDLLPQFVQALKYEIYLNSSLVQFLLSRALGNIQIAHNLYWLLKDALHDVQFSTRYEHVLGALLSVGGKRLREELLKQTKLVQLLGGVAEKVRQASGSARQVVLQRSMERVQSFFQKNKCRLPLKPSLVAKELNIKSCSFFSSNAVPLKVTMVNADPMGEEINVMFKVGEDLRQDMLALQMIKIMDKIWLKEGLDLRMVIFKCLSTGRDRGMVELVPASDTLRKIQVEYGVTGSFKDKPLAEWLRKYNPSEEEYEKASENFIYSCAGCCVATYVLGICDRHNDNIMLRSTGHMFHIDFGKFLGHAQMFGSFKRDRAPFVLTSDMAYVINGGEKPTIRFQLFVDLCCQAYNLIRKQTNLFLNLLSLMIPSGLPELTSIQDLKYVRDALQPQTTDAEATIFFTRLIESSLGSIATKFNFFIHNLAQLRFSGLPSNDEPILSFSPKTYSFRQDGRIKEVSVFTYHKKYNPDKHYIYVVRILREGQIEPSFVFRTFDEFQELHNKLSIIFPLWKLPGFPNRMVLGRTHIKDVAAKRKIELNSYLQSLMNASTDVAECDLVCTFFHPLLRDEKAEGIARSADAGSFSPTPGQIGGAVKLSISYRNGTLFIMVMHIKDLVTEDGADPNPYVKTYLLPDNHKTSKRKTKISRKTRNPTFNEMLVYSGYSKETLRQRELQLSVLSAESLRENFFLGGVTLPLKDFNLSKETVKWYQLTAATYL
structure (smiles),measurement,setting,value
"Cc1nc(NC(=O)CN)sc1-c1cnc(Cl)c(NS(=O)(=O)c2ccc(C(C)(C)C)cc2)c1 [PI3KD/V-IN-01, 2-amino-N-(5-(5-(4-tert-butylphenylsulfonamido)-6-chloropyridin-3-yl)-4-methylthiazol-2-yl)acetamide]",EC50,PI3Kα [1],2970 nM
same,EC50,MEC-2 [2],1580 nM
same,IC50,PI4KA,> 10000 nM
same,GI50,HT,1900 nM
same,Effect on LC3B puncta,[3],increased LC3B puncta
same,EC50,[4],413 nM
same,IC50,PIK3C2A,> 10000 nM
same,EC50,PI3Kβ [5],> 3000 nM
same,GI50,MEC-1,> 10000 nM
same,remaining binding at 1 µM,mTOR kinase,0%
same,GI50,SKM-1,1000 nM
same,induction of apoptosis,MEC-2 [6],only a modest induction of apoptosis
same,IC50,PI3Kβ [7],111 nM
same,IC50,PI3Kα [8],64 nM
same,EC50,mTORC1 kinase,1700 nM
same,EC50,MV4-11,124 nM
same,IC50,PIK3C2B,> 10000 nM
same,S score (5),protein kinases,0.00
same,induction of apoptosis,OCI-AML-2,only a modest induction of apoptosis
same,GI50,OCI-AML-3 [9],2400 nM
same,"levels of the autophagy markers, LC3BII and p62",OCI-AML-3 [10],concentration-dependent increase
same,effect on pERK,pERK in MEC-2 cells,significantly inhibited
same,"levels of the autophagy markers, LC3BII and p62",MEC-2 [11],concentration-dependent increase
same,IC50,PI3Kδ,6 nM
